# Data taken from publication PMC9814779, “A triple farnesoid X receptor and peroxisome proliferator-activated receptor α/δ activator reverses hepatic fibrosis in diet-induced NASH in mice” (Communications Chemistry, 2020).
# Key:
# DIO NASH = settings: cited from earlier work
# GAN DIO-NASH mice = assay: DIO NASH model in mice (GAN diet); settings: for animals with fibrosis worsening / animals with improvement in lobular inflammation / animals with reversed fibrosis: animals/group; for inflammatory cells and inflammatory foci in the liver: compared to vehicle; for liver Galectin-3 (Gal3) and liver CD45: markers of inflammation
# Experimental: The DIO NASH model was performed by the contract research organization Gubra (Hørsholm, Denmark) on a fee-for-service basis. All animal experiments were conducted in accordance with Gubra’s bioethical guidelines, which are fully compliant to internationally accepted principles for the care and use of laboratory animals. The animals were checked minimum once daily for signs of abnormal behavior, abnormal locomotor activity, ataxia, or clinical signs of disease (lack of grooming, raised fur, signs of pain upon handling, loss of excessive body weight).
# Male C57BL/6JRj mice (purchased from Janvier Labs, France at 5 weeks of age) were used for the study. […] Mice received the Gubra AMLN NASH (GAN; D09100310, Research Diet, US; 40% fat (primarily palm oil), 40% carbohydrate (20% fructose), and 2% cholesterol) diet for 46 weeks before start of the treatment. Prior to treatment, all animals underwent liver biopsy for histological conformation of liver disease (steatosis score ≥2 and fibrosis stage ≥1) using the non-alcoholic fatty liver disease activity scoring (NAS) and fibrosis staging system. Randomization and stratification to treatment was performed according to quantitative collagen staining (PSR). GAN DIO-NASH mice (n = 16 per group) received treatment (PO) with vehicle, OCA (30 mg/kg), or 41 (10 mg/kg, BID) for 12 weeks. Water containing 1% HPMC/Tween 80 (99:1) served as vehicle. Mice were then sacrificed by cardiac puncture under isoflurane anesthesia for histopathological and biochemical analysis.
# For pre-biopsies, mice were anesthetized by inhalation anesthesia using isoflurane (2–3%). A small abdominal incision was made in the midline and the left lateral lobe of the liver was exposed. A cone-shaped wedge of liver tissue (approximately 50 mg) was excised from the distal portion of the lobe and fixated in 10% neutral buffered formalin (10%) for histology. The cut surface of the liver was instantly electrocoagulated using bipolar coagulation (ERBE VIO 100 electrosurgical unit). The liver was returned to the abdominal cavity, the abdominal wall was sutured, and the skin was closed with staplers. […] TG, TC, ALT, and AST levels were determined from blood samples collected at week 4 of treatment in heparinized tubes. Plasma was separated and stored at −80 °C until analysis. […] After termination by heart puncture, livers were collected and weighed. Specific liver samples and biopsies were dissected and processed. The liver was divided into left lateral lobe, medial lobe, right lateral lobe, and caudal lobe. The left lateral lobe was used for the pre-biopsy (not applicable at termination). The liver post biopsy (~200 mg, <0.7 × 0.5 cm) was cut 4 mm from the pre-biopsy site and with an edge. The tissue was collected in paraformaldehyde. The medial lobe was sectioned and snap-frozen in liquid nitrogen for later analysis. One piece (25 ± 5 mg) was dissected and used for TG/TC analysis. […] Liver samples were fixed in formalin, paraffin embedded, and sections were stained. For H&E staining, the slides were incubated in Mayer’s Hematoxylin (Dako), washed in tap water, stained in Eosin Y solution (Sigma-Aldrich), […], and cover-slipped. For PSR staining, the slides were incubated in Weigert’s iron hematoxylin (Sigma-Aldrich), washed in tap water, stained in PSR (Sigma-Aldrich), and washed twice in acidified water. Excess water was removed by shaking the slides, and the slides were then dehydrated in three changes of 100% ethanol, cleared in xylene, and cover-slipped. […] Briefly, after antigen retrieval and blocking of endogenous peroxidase activity, slides were incubated with primary antibody. The primary antibody was detected using a polymeric horseradish peroxidase–linker antibody conjugate. Next, the primary antibody was visualized with 3,3′diaminobenzidine as chromogen. Finally, sections were counterstained in hematoxylin and cover-slipped. Samples were scored for NAS following the criteria outlined in[37].
# [1] = target: T1, human PPARα ligand-binding domain (Gal4 chimera) (Homo sapiens, UniProt Q07869); assay: Gal4 hybrid reporter gene assay, PPARα; format: cell-based; parameters: Emax: dose or concentration left out as unconfirmed
# T1 construct: coding for the hinge region and LBD of the canonical isoform of the respective nuclear receptor; expressed in transfected cells; host or cells: HEK293T
# T1 sequence (Q07869 239-466 limits assumed): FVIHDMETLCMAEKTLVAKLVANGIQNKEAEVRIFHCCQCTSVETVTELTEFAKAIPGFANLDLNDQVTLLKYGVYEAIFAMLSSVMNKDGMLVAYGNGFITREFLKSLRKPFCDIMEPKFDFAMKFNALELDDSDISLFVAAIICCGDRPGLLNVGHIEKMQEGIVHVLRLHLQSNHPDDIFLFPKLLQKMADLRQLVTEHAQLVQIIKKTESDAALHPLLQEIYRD
# [2] = 41 10 mg/kg b.i.d., OCA 30 mg/kg
# [3] = 12 weeks of treatment, 41 10 mg/kg b.i.d., OCA 30 mg/kg
# [4] = 12 weeks, 41 10 mg/kg b.i.d., OCA 30 mg/kg
SMILES,effects in DIO NASH (DIO NASH),plasma biochemical parameters after 4 weeks of treatment (GAN DIO-NASH mice; [2]),"plasma ALT, AST and triglycerides (TG) at termination (GAN DIO-NASH mice; [3])","plasma total cholesterol (TC) at termination (GAN DIO-NASH mice; 12 weeks of treatment, OCA 30 mg/kg)","liver weight, liver TG and liver TC content (GAN DIO-NASH mice; [4])","steatosis, hepatic fat content (GAN DIO-NASH mice; [4])","animals not completing the study (GAN DIO-NASH mice; OCA 30 mg/kg, one animal)",animals with fibrosis worsening (GAN DIO-NASH mice; [4]),animals with improvement in lobular inflammation (GAN DIO-NASH mice; [4]),animals with reversed fibrosis (GAN DIO-NASH mice; [4]),inflammatory cells and inflammatory foci in the liver (GAN DIO-NASH mice; 12 weeks),liver Galectin-3 (Gal3) and liver CD45 (GAN DIO-NASH mice; 12 weeks),"EC50 ([1]; EC50 [μM] PPARα, HEK293T, mean ± SEM, n = 3) [µM]","EC50 ([1]; PPARα EC50, as stated in text) [µM]",Emax ([1]; read-out: max. rel. act. PPARα) [%],"food intake and body weight (GAN DIO-NASH mice; 12 weeks, 41 10 mg/kg b.i.d., vs. OCA or vehicle)","liver picrosirius red (PSR), pre vs. post treatment (GAN DIO-NASH mice; after the treatment period, 41 10 mg/kg b.i.d.)","fibrosis markers PSR, Col1a1 and α-SMA (GAN DIO-NASH mice; compared to vehicle-treated animals, 12 weeks)"
"CC[C@H]1[C@@H](O)[C@@H]2[C@H](CC[C@]3(C)[C@@H]([C@H](C)CCC(=O)O)CC[C@@H]23)[C@@]2(C)CC[C@@H](O)C[C@@H]12 [OCA, 6α-ethylchenodeoxycholic acid, reference compound]",pronounced anti-steatotic activity and slight anti-fibrotic effects,reduced total cholesterol (TC) plasma levels,not different between groups,reduced TC levels,"lowered liver weight, liver TG, and liver TC",strongly reduced hepatic fat content and steatosis score,found dead during the second week of the treatment phase,4/15,8/15,2/15,decreased the number of inflammatory cells and inflammatory foci,reduced by both treatments,–,–,–,–,–,–
"CC(C)(C)c1ccc(C(=O)Nc2cccc(CCC(=O)O)c2)c(NC(=O)c2ccc(-c3ccco3)cc2)c1 [compound 41, 3-(3-[4-{tert-Butyl}-2-{4-(2-furyl)}benzamido]phenyl)propanoic acid]",–,not significantly different between the groups,not different between groups,–,did not differ from vehicle-treated mice,no pronounced effect on steatosis,–,1/16,5/16,6/16,decreased the number of inflammatory cells and inflammatory foci,reduced by both treatments,0.17 ± 0.04,0.168,72,no difference in food intake and body weight,significant reduction of liver picrosirius red (PSR),decreased
